# Results reported in patent publication US8785473B2, “Plasminogen activator inhibitor-1 inhibitor” (Renascience Co., Ltd., priority 2009, dated 2014).
# Marks after values point to notes of the source that are not given here.
# Key:
# [1] = tested on: rat model of ferric chloride-induced thrombosis; experiment: Test Example 3: antithrombotic effect confirmation test in a rat model of ferric chloride-induced thrombosis; assay type: in vivo; conditions: SD rats, 0.3 mg/kg or 1 mg/kg orally 2 hours before operation, compared to the vehicle group (FIG. 1)
# From the text: The antithrombotic effect of each of compounds (4), (13), (68), and (79) prepared in Examples 4, 13, 68, and 79 (hereinafter referred to as a test compound) was confirmed using a rat model of ferric chloride-induced thrombosis.
# Male 9-week-old SD rats (Japan SLC) were used, and divided into a vehicle group and a test compound group (each having n=10). Two hours before the operation for performing a test, in the test compound group, a 0.5% aqueous sodium carboxymethylcellulose (CMC) solution obtained by suspending a test compound in a mortar was added so that the test compound was orally administered in an amount of 0.3 mg/kg or 1 mg/kg. In the vehicle group, a 0.5% CMC aqueous solution that contained no test compound was orally administered. Two hours after oral administration, the rats in each group were anesthetized using […]., and the following operations were performed on a heat pad that had been kept at 38° C.
# An incision was made on the cervical skin, and the left carotid artery was exposed in such a manner that the cervical skeletal muscle was not injured. The adhesion tissue was carefully peeled off. Silk thread was placed over the carotid artery, and filter paper was put on the backside of the carotid artery to prevent effusion and facilitate experiment operations. A semicircular tube 5 mm in length (SP 110, inside diameter: 1.5 mm, produced by Natsume Seisakusho Co., Ltd.) was placed on the filter paper, and the blood vessel was placed in the tube. The carotid artery blood flow was measured using a cuff-type Doppler blood flow meter (inside diameter: 1 mm) placed at the periphery side, and recorded on a recorder (Graphtec WR3320) via an amplifier (Nihon Kohden, RMP-6004M). After the carotid artery blood flow was confirmed, filter paper (Whatman, No. 1, 2.5 mm×4.2 mm), to which 2 μL of physiological saline comprising 35% (w/w) ferric chloride was added dropwise, was wrapped around the origin of the carotid artery (the filter paper was positioned so that the length in the blood vessel circumferential direction was 4.2 mm). […]
# PAI-1 [2] = molecular target: T1, PAI-1 (Homo sapiens, UniProt P05121); experiment: biochemical; conditions: read-out: PAI-1 activity %
# Experimental: The final mixture contained 50 mM Tris-HCl (pH 8), 150 mM NaCl, 1% DMSO, 0.1% PEG-6000, 0.2 mM CHAPS, 5 nMPAI-1, 2 nM t-PA, 0.2 mM Spectrozyme t-PA synthetic substrate, and the compound (10 μM or 2.5 μM).
# PAI-1 [3] = molecular target: T1, PAI-1; experiment: Reference Test Example (1): measurement of PAI-1 inhibitory activity (S-2288), comparison with tiplaxtinin; assay type: biochemical; parameters: purchased Molecular Innovations, Inc. (USA); conditions: concentrations of 35 μM and 50 μM (FIG. 2)
# Experimental: The final mixture contained 100 mM Tris-HCl (pH 8), 30 mM NaCl, 1% DMSO, 0.1% Tween 80, 67 nM PAI-1, 9.8 nM t-PA, 1 mM S-2288, and test compound a or b (20, 35, or 50 μM).
# […] P-nitroaniline removed from the chromogenic substrate (S-2288) by t-PA action was measured using a spectrophotometer at an absorbance of 405 nm at 5-minute intervals for 30 minutes.
# Comparative tests were carried out in the same manner using, in place of the above test compounds, a compound (tiplaxtinin) of the formula below that is used as an antithrombotic drug in US clinical trials (concentration: 20, 35, and 50 μM).
# FIGS. 2 (A), (B), and (C) show PAI-1 activity (%) when compound a (concentrations: 20, 35, and 50 μM), compound b (concentrations: 20, 35, and 50 μM), and tiplaxtinin (comparative compound) (concentrations: 20, 35, and 50 μM) were added, respectively. The results reveal that compounds a and b had higher PAI-1 activity inhibitory action at concentrations of 35 μM and 50 μM than tiplaxtinin (comparative compound) (PAI-1 inhibitory activity).
# PAI-1 [4] = molecular target: T1, PAI-1; experiment: Reference Test Example (2): evaluation of fibrinolytic action (fibrin plate, PAI-1 + t-PA); assay type: biochemical; parameters: purchased Molecular Innovations, Inc. (USA); conditions: mixture of PAI-1, t-PA and test compound on fibrin plate, 18 hours, lysis area
# Experimental: The fibrinolytic action of Compounds a and b were evaluated in accordance with the document (Matsuo, O. et al., Haemostasis, 16, 43-50 (1986)).
# Specifically, an aqueous solution (containing 25 mM barbital-sodium, 50 mM NaCl, and 25 mM CaCl2) containing a concentration of 1.5 mg/mL of fibrinogen (produced by Organon Teknica) was added, on a 9 cm-plate, to thrombin dissolved in 0.2 mL of physiological saline (10NIH U/mL: produced by Mochida Pharmaceutical Co., Ltd.), and the mixture was allowed to stand at room temperature for 2 hours. Using this mixture, fibrinolysis assay was conducted.
# Namely, a mixture of PAI-1, t-PA, and a test compound was added dropwise to the plate and incubated at room temperature for 18 hours. Then, fibrinolysis due to plasminogen activation was measured from the lysis area on the plate.
# [5] = tested on: mouse model with pulmonary fibrosis artificially induced by bleomycin; experiment: Reference Test Example (3): effects on bleomycin-induced pulmonary fibrosis; assay type: in vivo; conditions: bleomycin mice, 200 mg/kg p.o. twice/day for 14 days
# Experimental: A C57BL/6 mouse (male, body weight: 19 to 21 g) was intraperitoneally anesthetized with pentobarbital, and an incision was made on the cervical organ. Ten mice were used as controls. Bleomycin (produced by Nippon Kayaku Co., Ltd.) (1.5 U/kg) lysed in physiological saline was endotracheally administered to each of the control mice (n=10) twice a day for 14 days. On the other hand, the test mice were subjected to forcible oral administration of compound b (200 mg/kg), suspended in a 0.5% carboxymethyl cellulose aqueous solution, twice a day for 14 days, in addition to the above endotracheal administration. Then, the lung tissues taken from these control mice and test mice were analyzed, and further assayed for hydroxyproline level. The hydroxyproline level in the lung tissues was measured as the hydrolysate level of the lung tissues, according to the method of Kivirikko et al. (Anal. Biochem. 19, 249-255 (1967)). The level (severity) of pulmonary fibrosis was scored from 0 to 8, based on the method of Ashcort et al. (J. Clin. Pathol. 41, 467-470 (1988)). Further, the control mice and the test mice were assayed for plasma PAI-1 activity (ng/mL).
# T1 sequence (P05121 24-402): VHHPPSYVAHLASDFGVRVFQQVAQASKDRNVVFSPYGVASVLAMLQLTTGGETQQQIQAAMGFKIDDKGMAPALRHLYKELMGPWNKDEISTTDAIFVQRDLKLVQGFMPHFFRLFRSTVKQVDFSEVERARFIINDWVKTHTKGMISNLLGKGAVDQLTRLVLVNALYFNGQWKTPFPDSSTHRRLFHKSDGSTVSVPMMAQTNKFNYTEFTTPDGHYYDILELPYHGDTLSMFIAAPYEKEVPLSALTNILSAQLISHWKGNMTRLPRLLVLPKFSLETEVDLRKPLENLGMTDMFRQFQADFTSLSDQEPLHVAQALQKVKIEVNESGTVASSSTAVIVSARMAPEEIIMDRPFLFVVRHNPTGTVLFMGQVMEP
SMILES,activity at 2.5 µM (PAI-1 [2]) [%],activity at 10 µM (PAI-1 [2]) [%],initial occlusion time (antithrombotic effect) [1],other results
"O=C(COc1cccc(-c2ccoc2)c1)Nc1ccc(Cl)cc1C(=O)O [Example 13, 5-chloro-2-({[3-(furan-3-yl)phenoxy]acetyl}amino)benzoic acid]",,,significantly prolonged,
"CCC(CC(=O)Nc1scc(-c2ccccc2)c1C(=O)O)C(=O)Nc1scc(-c2ccccc2)c1C(=O)O (stereo not shown) [compound a, 2-[3-(3′-Carboxy-4′-phenylthiophen-2′-ylcarbamoyl)-pentanoylamino]-4-phenylthiophen-3-carboxylic acid]",,,,PAI-1 activity inhibitory action compared with tiplaxtinin (PAI-1 [3]): higher; fibrinolytic action (PAI-1 [4]): inhibit the suppression of fibrinolysis caused by PAI-1
"O=C(Nc1ccc(Cl)cc1C(=O)O)c1cccc(C2=CCCCC2)c1 [Example 79, 5-chloro-2-({[3-(cyclohex-1-en-1-yl)phenyl]carbonyl}amino)benzoic acid]",,,significantly prolonged,
"O=C(COc1cccc(-c2ccccc2)c1)Nc1ccc(-c2ccccc2)cc1C(=O)O [Example 45, 4-{[(biphenyl-3-yloxy)acetyl]amino}biphenyl-3-carboxylic acid]",76.9,0.9,,
"CCC(CC(=O)Nc1scc(-c2cccs2)c1C(=O)O)C(=O)Nc1scc(-c2cccs2)c1C(=O)O (stereo not shown) [compound b, 2-[3-(3′-carboxy-4′-thienylthiophen-2′-ylcarbamoyl)-pentanoylamino]-4-thienylthiophen-3-carboxylic acid]",,,,"Hydroxyproline level in the lung tissues ([5]; n=10, mean±SE): 204.2 ± 9.5^b μg/lung; Plasma PAI-1 activity ([5]; n=10, mean±SE): 1.2 ± 0.1^b ng/mL; fibrosis score ([5]; scored from 0 to 8, bleomycin alone 4.7±0.17): 2.9±0.42; PAI-1 activity inhibitory action compared with tiplaxtinin (PAI-1 [3]): higher; fibrinolytic action (PAI-1 [4]): inhibit the suppression of fibrinolysis caused by PAI-1"
"O=C(Nc1ccc(Cl)cc1C(=O)O)c1cccc(-c2ccccc2)c1 [Example 4, 2-[(biphenyl-3-ylcarbonyl)amino]-5-chlorobenzoic acid]",,,significantly prolonged,

# Second part, led by results:
activity at 2.5 µM (PAI-1 [2]) [%],activity at 10 µM (PAI-1 [2]) [%],SMILES,initial occlusion time (antithrombotic effect) [1],other results
88.6,22.1,"CC(C(=O)Nc1ccc(Cl)cc1C(=O)O)(c1ccccc1)c1ccccc1 [Example 39, 5-chloro-2-[(2,2-diphenylpropanoyl)amino]benzoic acid]",,
69.9,0.4,"O=C(COc1ccc(-c2ccccc2)cc1)Nc1ccc(-c2ccoc2)cc1C(=O)O [Example 46, 2-{[(biphenyl-4-yloxy)acetyl]amino}-5-(furan-3-yl)benzoic acid]",,
